# Data taken from patent publication US10463661B2, “Anthelmintic compounds” (MERIAL INC., priority 2014, dated 2019).
# Tests used:
# [1] = system: ivermectin-resistant strains of Haemonchus contortus; assay: Efficacy against ivermectin-resistant endoparasites in sheep (FIG. 2); type: in vivo; conditions: 0.2 mg/kg orally
# [2] = system: ivermectin-resistant strains of Trichostrongylus columbriformis; assay: as above; type: in vivo; conditions: 0.2 mg/kg orally
# [3] = system: ivermectin-resistant strains of Ostertagia circumcincta; assay: as above; type: in vivo; conditions: 0.2 mg/kg orally
# Haemonchus contortus = assay: Screening method to test activity against Haemonchus contortus L1 larvae (Method A); type: cell-based; conditions: 96 h, read-out: motility inhibition
# Experimental: Screening method to test activity of compounds against Haemonchus contortus.
# Twenty L1 Haemonchus contortus larvae were added to wells of a microtitre plate containing a nutrient medium and the test compound in DMSO. An analysis was conducted at 4 days to determine the extent of development of the larvae. Larvae exposed to DMSO alone served as controls. Compounds 3, 6, 12, 15, 43, 44, 45, 46, 47, 48, 49, & 50 gave at least 90% motility inhibition at a test concentration of less than or equal to <1 μM when assessed at the 4 day time point.
# [4] = Permeability in the CACO-2/TC7 in vitro model (Method C); type: in vitro ADME; conditions: human, apical to basolateral, pH gradient 6.5/7.4 and BSA gradient 0.5%/5%, 20 μM compound
# Description: Permeability of Compounds.
# Permeability of a compound across the epithelium cells along the gastrointestinal tract is an important limiting factor for the oral absorption and systemic availability of the compound. An in vitro model utilizing Caco-2/TC7 cells is employed to assess the permeability characteristics of new chemical entities (NCEs). For orally administered compounds, absorption depends on the intrinsic permeability across the intestinal epithelium and whether the active agent is a substrate or inhibitor of uptake or efflux transporters.
# The permeability studies were performed under standard conditions in the apical to basolateral (A→B) direction with a pH gradient and a BSA gradient (standard apical medium (0.5% BSA at pH 6.5)/standard basal medium (5% BSA at pH 7.4)); conditions that most closely reflect the conditions in the in vivo situation. Samples were deproteinized by the addition of 400 μl acetonitrile to 200 μl sample, followed by a 20-minute centrifugation at 1730 g. […] Analytical conditions: Supernatants recovered following centrifugation were analysed by LC/MS/MS using a reverse phase column and the mobile phases delivered at 0.3 ml/minute in a gradient: water (A) and acetonitrile (B) (each with 0.1% formic acid). […]
Compound,efficacy [1],efficacy [2],efficacy [3],inhibition at 1 µM (Haemonchus contortus),Papp A→B at 20 μM [4]
ivermectin,almost completely inactive,less than 60%,less than 30%,–,–
"N#Cc1ccc(N2CCC(OCC(=O)N3CCN(c4nc5cc(C(F)(F)F)ccc5s4)CC3)CC2)cc1C(F)(F)F [Compound 3, 4-[4-[2-oxo-2-[4-[5-(trifluoromethyl)-1,3-benzothiazol-2-yl]piperazin-1-yl]ethoxy]-1-piperidyl]-2-(trifluoromethyl)benzonitrile]",–,–,–,≥ 90%,2.8 ×10⁻⁶ cm/s
"N#Cc1ccc(N2CC(OCC(=O)N3CCN(c4nc5cc(C(F)(F)F)ccc5s4)CC3)C2)cc1C(F)(F)F [Compound 6, 4-[3-[2-oxo-2-[4-[5-(trifluoromethyl)-1,3-benzothiazol-2-yl]piperazin-1-yl]ethoxy]azetidin-1-yl]-2-(trifluoromethyl)benzonitrile]",–,–,–,≥ 90%,–
